Source: patent publication US12338262B2 (Forward Therapeutics, Inc., priority 2022, dated 2025)
pIC50: −log10 of the molar value.

Target: TNF-α (Homo sapiens, UniProt P01375)
Assay: TNF-α Induced HEK Blue Cellular Assay
Assay type: cell-based
Details: HEK Blue TNFα reporter cells, TNF-α 100 pg/ml, 24 hrs at 37° C., secreted alkaline phosphatase (QUANTI-Blue, 620 nm)
Method: TNF-α Induced HEK Bluet Cellular Assay
Test articles were diluted in DMSO and serially diluted into 384 well assay plate (Corning 3765), at final concentrations ranging from […] to 0.5 nM. HEK Blue™ TNFα reporter cells were added at a final density of 10,000 cell per well in assay media [DMEM (Gibco, cat #21063-029), 10% fetal bovine serum (ExcelBio, cat #FND500), 1% Penicillin-Streptomycin (Solarbio, cat #P1400-100]. TNF-α (R&D 210-TA-020/CF) was then added to the assay plate at a final concentration of 100 pg/ml. This plate was then incubated for 24 hrs at 37° C. and 5% CO2. Secreted alkaline phosphatase expression was then measured using QUANTI-Blue™ (Invivogen), according to manufacturer instructions and read on an Envision microplate reader at 620 nm.
Inhibition data for test compound over a range of concentration was plotted as percentage inhibition of the test compound (100%=maximum inhibition). IC50 values were determined after correcting for background [(sample read-mean of low control)/(mean of high control-mean of low control)] where by the low control is DMSO without stimulation and high control is DMSO with stimulation. The IC50 is defined as the concentration of test compound which produces 50% inhibition and was quantified using the 4 parameter logistic equation to fit the data.

Chain of TNF-α (P01375 77-233 limits assumed): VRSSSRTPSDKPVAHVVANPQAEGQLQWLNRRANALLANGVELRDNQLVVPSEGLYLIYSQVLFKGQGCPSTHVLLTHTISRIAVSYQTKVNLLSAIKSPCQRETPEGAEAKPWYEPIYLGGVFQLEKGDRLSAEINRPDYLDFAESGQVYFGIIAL

| Compound | pIC50 |
| --- | --- |
| CC[C@H](Nc1c(Cl)c(C)nc2cc(F)c(-c3ccc(P(C)(C)=O)nc3)nc12)c1cc(C#N)ccc1F [Example 44, 3-[(1S)-1-({3-chloro-6-[6-(dimethylphosphoryl)pyridin-3-yl]-7-fluoro-2-methyl-1,5-naphthyridin-4-yl}amino)propyl]-4-fluorobenzonitrile] | ≥ 7.00 |
| Cc1nc2cc(F)c(-c3cnc(P(C)(C)=O)nc3)nc2c(N[C@H](C)c2cccc(C#N)c2)c1Cl [Example 46, 3-[(1R)-1-({3-chloro-6-[2-(dimethylphosphoryl)pyrimidin-5-yl]-7-fluoro-2-methyl-1,5-naphthyridin-4-yl}amino)ethyl]benzonitrile] | ≥ 7.00 |
| CC[C@@H](Nc1c(Cl)c(C)nc2cc(F)c(-c3cnc(P(C)(C)=O)nc3)nc12)c1cccc(C#N)c1 [Example 47, 3-[(1R)-1-({3-chloro-6-[2-(dimethylphosphoryl)pyrimidin-5-yl]-7-fluoro-2-methyl-1,5-naphthyridin-4-yl}amino)propyl]benzonitrile] | ≥ 6.00 |
| CC[C@@H](Nc1c(Cl)c(C)nc2cc(F)c(-c3ccc(P(C)(C)=O)nc3)nc12)c1cccc(C#N)c1 [Example 48, 3-[(1R)-1-({3-chloro-6-[6-(dimethylphosphoryl)pyridin-3-yl]-7-fluoro-2-methyl-1,5-naphthyridin-4-yl}amino)propyl]benzonitrile] | ≥ 7.00 |
| Cc1nc2cc(F)c(-c3cnc(P4(=O)CCCC4)nc3)nc2c(N[C@H](C)c2cc(C#N)ccc2F)c1Cl [Example 49, 3-[(1R)-1-({3-chloro-7-fluoro-2-methyl-6-[2-(1-oxo-1lambda5-phospholan-1-yl)pyrimidin-5-yl]-1,5-naphthyridin-4-yl}amino)ethyl]-4-fluorobenzonitrile] | ≥ 7.00 |
| Cc1nc2cc(F)c(-c3ccc(P(C)(C)=O)nc3)nc2c(N[C@@H](C)c2cc(F)ccc2F)c1Cl [Example 51, 3-chloro-N-[(1S)-1-(2,5-difluorophenyl)ethyl]-6-[6-(dimethylphosphoryl)pyridin-3-yl]-7-fluoro-2-methyl-1,5-naphthyridin-4-amine] | ≥ 7.00 |
| Cc1nc2cc(F)c(-c3ccc(P(C)(C)=O)nc3)nc2c(N[C@H](C)c2c(F)cccc2F)c1Cl [Example 52, 3-chloro-N-[(1R)-1-(2,6-difluorophenyl)ethyl]-6-[6-(dimethylphosphoryl)pyridin-3-yl]-7-fluoro-2-methyl-1,5-naphthyridin-4-amine] | ≥ 6.00 |
| Cc1nc2cc(F)c(-c3cnc(P(C)(C)=O)nc3)nc2c(N[C@H](C)c2ccccc2C(F)(F)F)c1Cl [Example 55, 3-chloro-6-[2-(dimethylphosphoryl)pyrimidin-5-yl]-7-fluoro-2-methyl-N-[(1R)-1-[2-(trifluoromethyl)phenyl]ethyl]-1,5-naphthyridin-4-amine] | 4.52 to 5.00 |
| Cc1nc2cc(F)c(-c3ccc(OCP(C)(C)=O)nc3)nc2c(N[C@H](C)c2ccccc2F)c1Cl [Example 56, 3-chloro-6-{6-[(dimethylphosphoryl)methoxy]pyridin-3-yl}-7-fluoro-N-[(1R)-1-(2-fluorophenyl)ethyl]-2-methyl-1,5-naphthyridin-4-amine] | ≥ 7.00 |
| CC[P@@](C)(=O)c1ccc(-c2nc3c(N[C@H](C)c4cc(C#N)ccc4F)c(Cl)c(C)nc3cc2F)cn1 [Example 57] | ≥ 7.00 |
| Cc1cc(P(C)(C)=O)ncc1-c1nc2c(N[C@H](C)c3cc(C#N)ccc3F)c(Cl)c(C)nc2cc1F [Example 61, 3-[(1R)-1-({3-chloro-6-[6-(dimethylphosphoryl)-4-methylpyridin-3-yl]-7-fluoro-2-methyl-1,5-naphthyridin-4-yl}amino)ethyl]-4-fluorobenzonitrile] | ≥ 6.00 |
| Cc1cc(P(C)(C)=O)ncc1-c1nc2c(N[C@H](C)c3ccccc3F)c(Cl)c(C)nc2cc1F [Example 62, 3-chloro-6-[6-(dimethylphosphoryl)-4-methylpyridin-3-yl]-7-fluoro-N-[(1R)-1-(2-fluorophenyl)ethyl]-2-methyl-1,5-naphthyridin-4-amine] | ≥ 6.00 |
| Cc1nc2cc(F)c(-c3cnc(P(C)(C)=O)nc3)cc2c(N[C@H](C)c2cccc(F)c2F)c1Cl [Example 65, 3-chloro-N-[(1R)-1-(2,3-difluorophenyl)ethyl]-6-[2-(dimethylphosphoryl)pyrimidin-5-yl]-7-fluoro-2-methylquinolin-4-amine] | ≥ 6.00 |
| Cc1cn(-c2ccc(F)c([C@@H](C)Nc3c(Cl)c(C)nc4cc(F)c(-c5ccc(P(C)(C)=O)nc5)nc34)c2)cn1 [Example 66, 3-chloro-6-[6-(dimethylphosphoryl)pyridin-3-yl]-7-fluoro-N-[(1R)-1-[2-fluoro-5-(4-methylimidazol-1-yl)phenyl]ethyl]-2-methyl-1,5-naphthyridin-4-amine] | ≥ 6.00 |
| Cc1nc2cc(F)c(-c3ccc(P(C)(C)=O)nc3)cc2c(N[C@H](C)c2cccc(F)c2F)c1Cl [Example 67, 3-chloro-N-[(1R)-1-(2,3-difluorophenyl)ethyl]-6-[6-(dimethylphosphoryl)pyridin-3-yl]-7-fluoro-2-methylquinolin-4-amine] | ≥ 7.00 |
| CC[C@H](Nc1c(Cl)c(C)nc2cc(F)c(-c3ccc(P(C)(C)=O)nc3)nc12)c1ncccc1F [Example 68, (S)-(5-(7-chloro-3-fluoro-8-((1-(3-fluoropyridin-2-yl)propyl)amino)-6-methyl-1,5-naphthyridin-2-yl)pyridin-2-yl)dimethylphosphine oxide] | ≥ 7.00 |
| CC[C@@H](Nc1c(Cl)c(C)nc2cc(F)c(-c3ccc(P(C)(C)=O)nc3)nc12)c1ncccc1F [Example 69, (R)-(5-(7-chloro-3-fluoro-8-((1-(3-fluoropyridin-2-yl)propyl)amino)-6-methyl-1,5-naphthyridin-2-yl)pyridin-2-yl)dimethylphosphine oxide] | ≥ 6.00 |
| Cc1nc2cc(F)c(-c3ccc(P(C)(C)=O)nc3)c(F)c2c(N[C@H](C)c2ccccc2F)c1Cl [Example 72, 3-chloro-6-[6-(dimethylphosphoryl)pyridin-3-yl]-5,7-difluoro-N-[(1R)-1-(2-fluorophenyl)ethyl]-2-methylquinolin-4-amine] | ≥ 6.00 |
| CC[C@H](Nc1c(Cl)c(C)nc2cc(F)c(-c3ccc(P(C)(C)=O)nc3)c(F)c12)c1ncccc1F [Example 73, (S)-(5-(3-chloro-5,7-difluoro-4-((1-(3-fluoropyridin-2-yl)propyl)amino)-2-methylquinolin-6-yl)pyridin-2-yl)dimethylphosphine oxide] | ≥ 6.00 |

Next, values leading:

| pIC50 | Compound |
| --- | --- |
| ≥ 7.00 | Cc1nc2cc(F)c(-c3ccc(P(C)(C)=O)nc3)nc2c(N[C@@H](C)c2cccc(F)c2F)c1Cl [Example 45, 3-chloro-N-[(1S)-1-(2,3-difluorophenyl)ethyl]-6-[6-(dimethylphosphoryl)pyridin-3-yl]-7-fluoro-2-methyl-1,5-naphthyridin-4-amine] |
| ≥ 7.00 | Cc1nc2cc(F)c(-c3ccc(P(C)(C)=O)nc3)nc2c(N[C@H](C)c2cccc(F)c2F)c1Cl [Example 50, 3-chloro-N-[(1R)-1-(2,3-difluorophenyl)ethyl]-6-[6-(dimethylphosphoryl)pyridin-3-yl]-7-fluoro-2-methyl-1,5-naphthyridin-4-amine] |
| ≥ 6.00 | Cc1nc2cc(F)c(-c3ccc(P(C)(C)=O)nc3)nc2c(N[C@H](C)c2cc(F)ccc2F)c1Cl [Example 53, 3-chloro-N-[(1R)-1-(2,5-difluorophenyl)ethyl]-6-[6-(dimethylphosphoryl)pyridin-3-yl]-7-fluoro-2-methyl-1,5-naphthyridin-4-amine] |
| ≥ 6.00 | Cc1nc2cc(F)c(-c3ccc(P(C)(C)=O)nc3)nc2c(N[C@@H](C)c2c(F)cccc2F)c1Cl [Example 54, 3-chloro-N-[(1S)-1-(2,6-difluorophenyl)ethyl]-6-[6-(dimethylphosphoryl)pyridin-3-yl]-7-fluoro-2-methyl-1,5-naphthyridin-4-amine] |
| 4.52 to 5.00 | Cc1nc2cc(F)c(-c3ccc(P(C)(C)=O)nc3)nc2c(N[C@H](CO)c2ccccc2F)c1Cl [Example 59, (2S)-2-({3-chloro-6-[6-(dimethylphosphoryl)pyridin-3-yl]-7-fluoro-2-methyl-1,5-naphthyridin-4-yl}amino)-2-(2-fluorophenyl)ethanol] |
| 4.52 to 5.00 | Cc1nc2cc(F)c(-c3ccc(P(C)(C)=O)nc3)nc2c(N[C@@H](CO)c2ccccc2F)c1Cl [Example 60, (2R)-2-({3-chloro-6-[6-(dimethylphosphoryl)pyridin-3-yl]-7-fluoro-2-methyl-1,5-naphthyridin-4-yl}amino)-2-(2-fluorophenyl)ethanol] |
| ≥ 7.00 | Cc1nc2cc(F)c(-c3ccc(P(C)(C)=O)nc3)nc2c(N[C@@H](c2ccccc2F)C(F)(F)F)c1Cl [Example 70, 3-chloro-6-[6-(dimethylphosphoryl)pyridin-3-yl]-7-fluoro-2-methyl-N-[(1S)-2,2,2-trifluoro-1-(2-fluorophenyl)ethyl]-1,5-naphthyridin-4-amine] |
| ≥ 6.00 | Cc1nc2cc(F)c(-c3cnc(P(C)(C)=O)nc3)nc2c(N[C@@H](c2ccccc2F)C(F)(F)F)c1Cl [Example 71, 3-chloro-6-[2-(dimethylphosphoryl)pyrimidin-5-yl]-7-fluoro-2-methyl-N-[(1S)-2,2,2-trifluoro-1-(2-fluorophenyl)ethyl]-1,5-naphthyridin-4-amine] |
